Series [1] in a line: Benzalkonium chloride adsorption test (soft contact lenses, lens not given). Format: physicochemical. Conditions: for Inhibition of adsorption, cyclodextrin in place of α-cyclodextrin (in words): α-cyclodextrin replaced by the other cyclodextrin. Here is the method:
(§1) The percent inhibition of benzalkonium chloride adsorption to commercially available soft contact lenses was determined by the following test.
(§2) Benzalkonium chloride adsorption test A 30-ml vial was charged with 10 ml of the solution and a soft contact lens was immersed therein. In a constant temperature tank at 25° C., the vial was shaken for 24 hours. After the contact lens was removed from the vial, the concentration of benzalkonium chloride in the solution was quantitatively determined by high performance liquid chromatography. A percent inhibition of adsorption was calculated according to the following formula.
(§3) As a control, the above procedure was repeated except that no contact lens was immersed.
(§4) Inhibition of adsorption (%)=(concentration of benzalkonium chloride in sample solution)/(concentration of benzalkonium chloride in control solution)×100
Solutions of the formulation shown in Table 7 were prepared to a total amount of 1,000 g in a conventional manner as used in the preparation of eye drops. Ophthalmic solutions of Examples 2 to 13 were obtained. The ophthalmic solutions were subject to the same tests as in Experiments 1 and 3. In the test of Experiment 3, the ophthalmic solutions were evaluated for antimicrobial activity according to the same criterion as before.

The format of series [2] is physicochemical. Conditions: 6 months at 50° C. Here is the method:
[…] More specifically, solutions were prepared in accordance with the formulation shown in Experiment 1 while the amount of α-cyclodextrin mixed was in the range of 0.03 to 2%.

The test system of series [3] is Escherichia coli (E. coli). Put plainly: Antimicrobial test (preservative effectiveness test, USP), E. coli. It counts as cell-based. The note with it: benzalkonium chloride 0.01%. Here is the method: (§5) The solutions of Experiment 1 were subject to an antimicrobial test.
(§6) Using bacteria Escherichia coli (E. coli), Pseudomonas aeruginosa (P. aeru), and Stapyrococcus aureus (S. aureus) and fungi Aspergillus nigar (A. nigar) and Candida albicans (Candida) as infectious microorganisms, a preservative effectiveness test was carried out according to the Pharmacopoeia of the United States.
(§7) ++: microorganisms died within 5 days
(§8) +: microorganisms died in 6-10 days
(§9) -:microorganisms died in 11-15 days or over 15 days

The test system of series [4] is Stapyrococcus aureus (S. aureus). Kind of series: Antimicrobial test (preservative effectiveness test, USP), S. aureus. Format: cell-based. Conditions: benzalkonium chloride 0.01%. Here is the method: as §5, §6, §7, §8, §9
The nature of series [5]: Benzalkonium chloride adsorption test (soft contact lens Nichicon Soft μ). Format: physicochemical. The note with it: benzalkonium chloride 0.01%, 25° C., 24 hours. The method, then:
(§10) A test was conducted to examine the inhibition of benzalkonium chloride adsorption to soft contact lenses. Solutions of the following formulation were prepared in a conventional manner as used in the preparation of eye drops.
as §1, §2, §3, §4
(§11) Note that Seequence, Nichicon Soft and Menicon Soft are trademarks of soft contact lenses commercially available from Bausch & Lomb, Nihon Contact K.K., and Menicon K.K., respectively.

The subject of series [6] is Aspergillus nigar (A. nigar). Kind of series: Antimicrobial test (preservative effectiveness test, USP), A. nigar. Format: cell-based. Conditions: benzalkonium chloride 0.01%. The method, then:
as §5, §6, §7, §8, §9

The subject of series [7] is E. coli, P. aeru, S. aureus, A. nigar, Candida. Kind of series: Antimicrobial test (preservative effectiveness test, USP), microorganism type not specified. Format: cell-based. Conditions: α-cyclodextrin 0.03% or more. The method, then:
as §6, §7, §8, §9
Solutions were prepared in accordance with the formulation shown in Experiment 1 in a conventional manner as used in the preparation of eye drops while the amount of disodium ethylenediaminetetraacetate (EDTA-2Na) blended was in the range of 0.002 to 0.3%. The solutions were subject to the antimicrobial test of Experiment 3 and evaluated for antimicrobial activity according to the same criterion as above.
Solutions of the following formulation were prepared in a conventional manner as used in the preparation of eye drops.
The solutions were subject to the antimicrobial test of Experiment 3 and evaluated for antimicrobial activity according to the same criterion as above.
Solutions of the formulation shown in Table 7 were prepared to a total amount of 1,000 g in a conventional manner as used in the preparation of eye drops. […] The ophthalmic solutions were subject to the same tests as in Experiments 1 and 3. In the test of Experiment 3, the ophthalmic solutions were evaluated for antimicrobial activity according to the same criterion as before.

The test system of series [8] is Pseudomonas aeruginosa (P. aeru). Put plainly: Antimicrobial test (preservative effectiveness test, USP), P. aeru. Format: cell-based. Conditions: benzalkonium chloride 0.01%. The method, then:
as §5, §6, §7, §8, §9

Series [9] in a line: Benzalkonium chloride adsorption test (soft contact lens Menicon Soft 72). It counts as physicochemical. Conditions: benzalkonium chloride 0.01%, 25° C., 24 hours. The method, then:
as §10, §1, §2, §3, §4, §11

The test system of series [10] is Candida albicans (Candida). Put plainly: Antimicrobial test (preservative effectiveness test, USP), Candida. Format: cell-based. The note with it: benzalkonium chloride 0.01%. Here is the method:
as §5, §6, §7, §8, §9

A short description of series [11]: Benzalkonium chloride adsorption test (soft contact lens Seequence). It counts as physicochemical. Conditions: benzalkonium chloride 0.01%, 25° C., 24 hours. Here is the method:
as §10, §1, §2, §3, §4, §11

Like-named read-outs stand apart in the source and are kept apart here.

For `OC[C@H]1O[C@@H]2O[C@H]3[C@H](O)[C@@H](O)[C@@H](O[C@H]4[C@H](O)[C@@H](O)[C@@H](O[C@H]5[C@H](O)[C@@H](O)[C@@H](O[C@H]6[C@H](O)[C@@H](O)[C@@H](O[C@H]7[C@H](O)[C@@H](O)[C@@H](O[C@H]8[C@H](O)[C@@H](O)[C@@H](O[C@H]1[C@H](O)[C@H]2O)O[C@@H]8CO)O[C@@H]7CO)O[C@@H]6CO)O[C@@H]5CO)O[C@@H]4CO)O[C@@H]3CO` [β-cyclodextrin], the “Inhibition of adsorption, cyclodextrin in place of α-cyclodextrin (in words)” value in [1] was “Approximately equivalent results”.
On the same count and under the same terms, to `OC[C@H]1O[C@@H]2O[C@H]3[C@H](O)[C@@H](O)[C@@H](O[C@H]4[C@H](O)[C@@H](O)[C@@H](O[C@H]5[C@H](O)[C@@H](O)[C@@H](O[C@H]6[C@H](O)[C@@H](O)[C@@H](O[C@H]7[C@H](O)[C@@H](O)[C@@H](O[C@H]8[C@H](O)[C@@H](O)[C@@H](O[C@H]9[C@H](O)[C@@H](O)[C@@H](O[C@H]%10[C@H](O)[C@@H](O)[C@@H](O[C@H]1[C@H](O)[C@H]2O)O[C@@H]%10CO)O[C@@H]9CO)O[C@@H]8CO)O[C@@H]7CO)O[C@@H]6CO)O[C@@H]5CO)O[C@@H]4CO)O[C@@H]3CO` [δ-cyclodextrin] belongs “Approximately equivalent results”; to hydroxyethylated cyclodextrin, “Approximately equivalent results”.
Consider `OC[C@H]1O[C@@H]2O[C@H]3[C@H](O)[C@@H](O)[C@@H](O[C@H]4[C@H](O)[C@@H](O)[C@@H](O[C@H]5[C@H](O)[C@@H](O)[C@@H](O[C@H]6[C@H](O)[C@@H](O)[C@@H](O[C@H]7[C@H](O)[C@@H](O)[C@@H](O[C@H]1[C@H](O)[C@H]2O)O[C@@H]7CO)O[C@@H]6CO)O[C@@H]5CO)O[C@@H]4CO)O[C@@H]3CO` [α-cyclodextrin], for which the “Inhibition of adsorption of benzalkonium chloride to soft contact lenses (in words)” value in [1] (concentration of at least 0.03%) is reported as “The inhibition effect is remarkable”. The Stability result in series [2] (α-cyclodextrin 0.03%) is recorded as “.largecircle”; in [2] (α-cyclodextrin 0.5%), “.largecircle”; in [2] (α-cyclodextrin 1%) it was “Δ”. The Antimicrobial activity entry in series [3] (α-cyclodextrin 0.01%) is listed as “+ (microorganisms died in 6-10 days)”; in [3] (α-cyclodextrin 0.02%) it was “+ (microorganisms died in 6-10 days)”; in [3] (α-cyclodextrin 0.03%), “- (microorganisms died in 11-15 days or over 15 days)”; in [3] (α-cyclodextrin 0.05%) it was “- (microorganisms died in 11-15 days or over 15 days)”; in [3] (α-cyclodextrin 0.1%), “- (microorganisms died in 11-15 days or over 15 days)”; in series [3] (α-cyclodextrin 0.2%), “- (microorganisms died in 11-15 days or over 15 days)”. The Antimicrobial activity result in series [3] (α-cyclodextrin 0.3%) is reported as “- (microorganisms died in 11-15 days or over 15 days)”; in [4] (α-cyclodextrin 0.01%), “+ (microorganisms died in 6-10 days)”; in [4] (α-cyclodextrin 0.02%), “+ (microorganisms died in 6-10 days)”; in series [4] (α-cyclodextrin 0.03%), “- (microorganisms died in 11-15 days or over 15 days)”; in series [4] (α-cyclodextrin 0.05%), “- (microorganisms died in 11-15 days or over 15 days)”; in series [4] (α-cyclodextrin 0.1%), “- (microorganisms died in 11-15 days or over 15 days)”. In addition, the Antimicrobial activity entry is “- (microorganisms died in 11-15 days or over 15 days)” in series [4] (α-cyclodextrin 0.2%); “- (microorganisms died in 11-15 days or over 15 days)” in series [4] (α-cyclodextrin 0.3%); “+ (microorganisms died in 6-10 days)” in series [6] (α-cyclodextrin 0.01%); “+ (microorganisms died in 6-10 days)” in series [6] (α-cyclodextrin 0.02%); “- (microorganisms died in 11-15 days or over 15 days)” in [6] (α-cyclodextrin 0.03%); “- (microorganisms died in 11-15 days or over 15 days)” in series [6] (α-cyclodextrin 0.05%). The Antimicrobial activity entry in series [6] (α-cyclodextrin 0.1%) is given as “- (microorganisms died in 11-15 days or over 15 days)”; in series [6] (α-cyclodextrin 0.2%), “- (microorganisms died in 11-15 days or over 15 days)”; in series [6] (α-cyclodextrin 0.3%), “- (microorganisms died in 11-15 days or over 15 days)”; in series [8] (α-cyclodextrin 0.01%) it was “+ (microorganisms died in 6-10 days)”; in series [8] (α-cyclodextrin 0.02%), “+ (microorganisms died in 6-10 days)”; in [8] (α-cyclodextrin 0.03%), “- (microorganisms died in 11-15 days or over 15 days)”. Further, the Antimicrobial activity result in series [8] (α-cyclodextrin 0.05%) is “- (microorganisms died in 11-15 days or over 15 days)”; in series [8] (α-cyclodextrin 0.1%) it was “- (microorganisms died in 11-15 days or over 15 days)”; in series [8] (α-cyclodextrin 0.2%) it was “- (microorganisms died in 11-15 days or over 15 days)”; in series [8] (α-cyclodextrin 0.3%), “- (microorganisms died in 11-15 days or over 15 days)”; in [10] (α-cyclodextrin 0.01%), “+ (microorganisms died in 6-10 days)”; in series [10] (α-cyclodextrin 0.02%), “+ (microorganisms died in 6-10 days)”. The Antimicrobial activity result in [10] (α-cyclodextrin 0.03%), in [10] (α-cyclodextrin 0.05%), in series [10] (α-cyclodextrin 0.1%), in series [10] (α-cyclodextrin 0.2%) and in series [10] (α-cyclodextrin 0.3%) was “- (microorganisms died in 11-15 days or over 15 days)” each time. For the same compound, the Inhibition of adsorption in series [5] (α-cyclodextrin 0.01%) is 87%; in series [5] (α-cyclodextrin 0.02%), 93%; in [5] (α-cyclodextrin 0.03%), 100%; in series [5] (α-cyclodextrin 0.05%) it was 100%; in series [5] (α-cyclodextrin 0.1%), 100%; in [5] (α-cyclodextrin 0.2%), 100%. For the same compound, the Inhibition of adsorption in series [5] (α-cyclodextrin 0.3%) amounted to 100%; in series [9] (α-cyclodextrin 0.01%), 88%; in [9] (α-cyclodextrin 0.02%), 92%; in series [9] (α-cyclodextrin 0.03%), 100%; in series [9] (α-cyclodextrin 0.05%), 100%; in [9] (α-cyclodextrin 0.1%), 100%. Further, the Inhibition of adsorption was 100% in [9] (α-cyclodextrin 0.2%); 100% in [9] (α-cyclodextrin 0.3%); 88% in [11] (α-cyclodextrin 0.01%); 92% in series [11] (α-cyclodextrin 0.02%); 100% in series [11] (α-cyclodextrin 0.03%); 100% in [11] (α-cyclodextrin 0.05%). The Inhibition of adsorption in series [11] (α-cyclodextrin 0.1%), in series [11] (α-cyclodextrin 0.2%) and in series [11] (α-cyclodextrin 0.3%) was 100% throughout. The “Antimicrobial activity of solution containing benzalkonium chloride (in words)” value in series [7] is “significantly reduced in antimicrobial activity”.
In the case of methylated cyclodextrin, in series [1], the “Inhibition of adsorption, cyclodextrin in place of α-cyclodextrin (in words)” value was “Approximately equivalent results”.
The same measure, in the same setting: the value for `OC[C@H]1O[C@@H]2O[C@H]3[C@H](O)[C@@H](O)[C@@H](O[C@H]4[C@H](O)[C@@H](O)[C@@H](O[C@H]5[C@H](O)[C@@H](O)[C@@H](O[C@H]6[C@H](O)[C@@H](O)[C@@H](O[C@H]7[C@H](O)[C@@H](O)[C@@H](O[C@H]8[C@H](O)[C@@H](O)[C@@H](O[C@H]9[C@H](O)[C@@H](O)[C@@H](O[C@H]1[C@H](O)[C@H]2O)O[C@@H]9CO)O[C@@H]8CO)O[C@@H]7CO)O[C@@H]6CO)O[C@@H]5CO)O[C@@H]4CO)O[C@@H]3CO` [γ-cyclodextrin] was “Approximately equivalent results”.

The values are drawn from US5998488A, “Ophthalmic composition” (Lion Corporation, priority 1994, dated 1999).
